Holding throughout (assay): Bacterial growth minimal inhibitory concentration (broth microdilution, CLSI M7-A7)
What all share (format): cell-based
In general terms: Dilution methods test growth across graded concentrations, often in twofold steps.

Experiment [1] deals with Staphylococcus aureus ATCC29213. To be noted: Staphylococcus aureus, ATCC29213, cation-adjusted Mueller-Hinton Broth, methicillin-sensitive and quinolone-sensitive strain, read-out: MIC for S. aureus ATCC29213. The gist of the method:
(§1)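 Cation-adjusted MH broth, microdilution, CLSI M7-A7; MIC in mg/L. Strains: S. aureus A798 and A. baumannii T6474 multiresistant (quinolone-R); S. aureus ATCC29213 MSSA, quinolone-S; M. catarrhalis A894 quinolone-S.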

Experiment [2] concerns Enterococcus faecium A949. To be noted: Enterococcus faecium, A949, cation-adjusted Mueller-Hinton Broth, multiply-resistant strain (in particular quinolone-resistant), read-out: MIC for E. faecium A949. The gist of the method:
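Broth microdilution after CLSI M7-A7 in cation-adjusted Mueller-Hinton medium gave MIC values in mg/L.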

Experiment [3] has as its system Staphylococcus aureus A798. Conditions: Staphylococcus aureus, A798, cation-adjusted Mueller-Hinton Broth, multiply-resistant strain (in particular quinolone-resistant), read-out: MIC for S. aureus A798. Put shortly:
as §1

For experiment [4], the system named is Acinetobacter baumannii T6474. Conditions: Acinetobacter baumannii, T6474, cation-adjusted Mueller-Hinton Broth, multiply-resistant strain (in particular quinolone-resistant). Put shortly:
as §1

In experiment [5] the test system is Moraxella catarrhalis A894. To be noted: Moraxella catarrhalis, A894, cation-adjusted Mueller-Hinton Broth, quinolone-sensitive strain. Put shortly: as §1

Molecules are shown by their SMILES. ≈ marks a conversion by molar mass, not a printed value.

With `CNC(=O)COc1cccc(-c2cccc(CNCC[C@H]3CN(c4ccc5c(n4)NC(=O)CO5)C(=O)O3)c2)c1` [Example 78, N-methyl-2-[3′-({2-[(S)-2-oxo-3-(3-oxo-3,4-dihydro-2H-pyrido[3,2-b][1,4]oxazin-6-yl)-oxazolidin-5-yl]-ethylamino}-methyl)-biphenyl-3-yloxy]-acetamide], the MIC is 0.5 µg/mL (≈ 0.941 µM) in experiment [1]; 8 µg/mL (≈ 15 µM) in experiment [2]; 1 µg/mL (≈ 1.88 µM) in experiment [3]; 1 µg/mL (≈ 1.88 µM) in experiment [4]; 0.031 µg/mL (≈ 0.0583 µM) in experiment [5].
Take `COc1ccc(-c2cccc(CNCC[C@H]3CN(c4ccc5c(n4)NC(=O)CO5)C(=O)O3)c2)nn1` [Example 79, 6-((S)-5-{2-[3-(6-methoxy-pyridazin-3-yl)-benzylamino]-ethyl}-2-oxo-oxazolidin-3-yl)-4H-pyrido[3,2-b][1,4]oxazin-3-one]: the MIC was 0.5 µg/mL (≈ 1.05 µM) in experiment [1]; 8 µg/mL (≈ 16.8 µM) in experiment [2]; 0.5 µg/mL (≈ 1.05 µM) in experiment [3]; 0.5 µg/mL (≈ 1.05 µM) in experiment [4]; 0.063 µg/mL (≈ 0.132 µM) in experiment [5].
On to `N#Cc1cnnc(-c2cccc(CNCC[C@H]3CN(c4ccc5c(n4)NC(=O)CO5)C(=O)O3)c2)c1` [Example 80, 6-[3-({2-[(S)-2-oxo-3-(3-oxo-3,4-dihydro-2H-pyrido[3,2-b][1,4]oxazin-6-yl)-oxazolidin-5-yl]-ethylamino}-methyl)-phenyl]-pyridazine-4-carbonitrile], for which the MIC in experiment [1] was 0.5 µg/mL (≈ 1.06 µM); in experiment [2], more than 8 µg/mL; in experiment [3], 0.5 µg/mL (≈ 1.06 µM); in experiment [4], 0.25 µg/mL (≈ 0.53 µM); in experiment [5], 0.031 µg/mL (≈ 0.0658 µM).
Regarding `COc1cnnc(-c2cccc(CNCC[C@H]3CN(c4ccc5c(c4)NC(=O)CO5)C(=O)O3)c2)c1` [Example 81, 6-((S)-5-{2-[3-(5-methoxy-pyridazin-3-yl)-benzylamino]-ethyl}-2-oxo-oxazolidin-3-yl)-4H-benzo[1,4]oxazin-3-one], the MIC was 0.5 µg/mL (≈ 1.05 µM) in experiment [1]; more than 8 µg/mL in experiment [2]; 1 µg/mL (≈ 2.1 µM) in experiment [3]; 1 µg/mL (≈ 2.1 µM) in experiment [4]; 0.063 µg/mL (≈ 0.132 µM) in experiment [5].
As for `N#Cc1cccc(-c2cccc(CNCC[C@H]3CN(c4ccc5c(c4)NC(=O)CO5)C(=O)O3)c2)c1` [Example 82, 3′-({2-[(S)-2-oxo-3-(3-oxo-3,4-dihydro-2H-benzo[1,4]oxazin-6-yl)-oxazolidin-5-yl]-ethylamino}-methyl)-biphenyl-3-carbonitrile], the MIC was 0.5 µg/mL (≈ 1.07 µM) in experiment [1]; 4 µg/mL (≈ 8.54 µM) in experiment [2]; 0.5 µg/mL (≈ 1.07 µM) in experiment [3]; 0.5 µg/mL (≈ 1.07 µM) in experiment [4]; not above 0.016 µg/mL in experiment [5].
`COc1cnnc(-c2cccc(CNCCc3cn(-c4ccc5c(n4)NC(=O)CO5)c(=O)o3)c2)c1` [Example 83, 6-(5-{2-[3-(5-methoxy-pyridazin-3-yl)-benzylamino]-ethyl}-2-oxo-oxazol-3-yl)-4H-pyrido[3,2-b][1,4]oxazin-3-one]: the MIC was 0.063 µg/mL (≈ 0.133 µM) in experiment [1]; 2 µg/mL (≈ 4.22 µM) in experiment [2]; 0.063 µg/mL (≈ 0.133 µM) in experiment [3]; 0.063 µg/mL (≈ 0.133 µM) in experiment [4]; not above 0.016 µg/mL in experiment [5].
In the case of `CCOc1cncc(-c2cccc(CNCC[C@H]3CN(c4ccc5c(n4)NC(=O)CO5)C(=O)O3)c2)c1` [Example 84, 6-((S)-5-{2-[3-(5-ethoxy-pyridin-3-yl)-benzylamino]-ethyl}-2-oxo-oxazolidin-3-yl)-4H-pyrido[3,2-b][1,4]oxazin-3-one], the MIC in experiment [1] is 0.25 µg/mL (≈ 0.511 µM); in experiment [2], 8 µg/mL (≈ 16.3 µM); in experiment [3], 0.125 µg/mL (≈ 0.255 µM); in experiment [4], 0.5 µg/mL (≈ 1.02 µM); in experiment [5] it was not above 0.063 µg/mL.
Taken in the same sequence, the figures for `COc1cccc(-c2cccc(CNCCc3cn(-c4ccc5c(n4)NC(=O)CO5)c(=O)o3)c2O)n1` [Example 85, 6-(5-{2-[2-hydroxy-3-(6-methoxy-pyridin-2-yl)-benzylamino]-ethyl}-2-oxo-oxazol-3-yl)-4H-pyrido[3,2-b][1,4]oxazin-3-one] were not above 0.016 µg/mL, 0.5 µg/mL (≈ 1.02 µM), not above 0.016 µg/mL, 0.125 µg/mL (≈ 0.255 µM) and not above 0.016 µg/mL.

As a reminder, the MIC is the lowest concentration that inhibits growth of the organism.

These data come from US9527867B2, “Antibacterial biaromatic derivatives” (Actelion Pharmaceuticals Ltd., priority 2013, dated 2016).
